Source: publication PMC7156458, “Synthetic biology based construction of biological activity-related library of fungal decalin-containing diterpenoid pyrones” (Nature Communications, 2020)

Target: Aβ42 (Homo sapiens, UniProt P05067)
Assay: Th-T (thioflavin-T) assay of Aβ42 aggregation
Assay type: biochemical
Details: for Th-T fluorescence of Aβ42 with compound, mean of three wells (Fig. 7a source data): concentration 50, unit not given

Sequence of Aβ42 (P05067 672-713): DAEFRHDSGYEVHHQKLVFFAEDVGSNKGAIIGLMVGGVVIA

SMILES: C=C1CC[C@@H]2[C@](C)(CC[C@H]3O[C@H](C=C(C)C)C[C@@]23C)[C@@H]1Cc1c(OC)oc(CO)c(C(=O)OC)c1=O [Compound 21]
- Th-T fluorescence of Aβ42 with compound, mean of three wells (Fig. 7a source data) (time-course reading M143): 0.5052
- Th-T fluorescence of Aβ42 with compound, mean of three wells (Fig. 7a source data) (time-course reading M144): 0.5053
- Th-T fluorescence of Aβ42 with compound, mean of three wells (Fig. 7a source data) (time-course reading M145): 0.5045
- Th-T fluorescence of Aβ42 (sheet Fig. 7a), mean of three wells (head suffix _10 (concentration 10), reading M63): 0.5289
- Th-T fluorescence of Aβ42 (sheet Fig. 7a), mean of three wells (head suffix _10 (concentration 10), reading M64): 0.6173
- Th-T fluorescence of Aβ42 (sheet Fig. 7a), mean of three wells (head suffix _10 (concentration 10), reading M65): 0.6561
- Th-T fluorescence of Aβ42 (sheet Fig. 7a), mean of three wells (head suffix _10 (concentration 10), reading M66): 0.6931
- Th-T fluorescence of Aβ42 (sheet Fig. 7a), mean of three wells (head suffix _10 (concentration 10), reading M67): 0.7435
- Th-T fluorescence of Aβ42 (sheet Fig. 7a), mean of three wells (head suffix _10 (concentration 10), reading M68): 0.7523
- Th-T fluorescence of Aβ42 (sheet Fig. 7a), mean of three wells (head suffix _10 (concentration 10), reading M69): 0.7892
- Th-T fluorescence of Aβ42 (sheet Fig. 7a), mean of three wells (head suffix _10 (concentration 10), reading M70): 0.7946
- Th-T fluorescence of Aβ42 (sheet Fig. 7a), mean of three wells (head suffix _10 (concentration 10), reading M71): 0.8033
- Th-T fluorescence of Aβ42 (sheet Fig. 7a), mean of three wells (head suffix _10 (concentration 10), reading M72): 0.7933
- Th-T fluorescence of Aβ42 (sheet Fig. 7a), mean of three wells (head suffix _10 (concentration 10), reading M73): 0.8223
- Th-T fluorescence of Aβ42 (sheet Fig. 7a), mean of three wells (head suffix _10 (concentration 10), reading M74): 0.8738
- Th-T fluorescence of Aβ42 (sheet Fig. 7a), mean of three wells (head suffix _10 (concentration 10), reading M75): 0.8711
- Th-T fluorescence of Aβ42 (sheet Fig. 7a), mean of three wells (head suffix _10 (concentration 10), reading M76): 0.921
- Th-T fluorescence of Aβ42 (sheet Fig. 7a), mean of three wells (head suffix _10 (concentration 10), reading M77): 0.9791
- Th-T fluorescence of Aβ42 (sheet Fig. 7a), mean of three wells (head suffix _10 (concentration 10), reading M78): 1.0381
- Th-T fluorescence of Aβ42 (sheet Fig. 7a), mean of three wells (head suffix _10 (concentration 10), reading M79): 1.098
- Th-T fluorescence of Aβ42 (sheet Fig. 7a), mean of three wells (head suffix _10 (concentration 10), reading M80): 1.155
- Th-T fluorescence of Aβ42 (sheet Fig. 7a), mean of three wells (head suffix _10 (concentration 10), reading M81): 1.227
- Th-T fluorescence of Aβ42 (sheet Fig. 7a), mean of three wells (head suffix _10 (concentration 10), reading M82): 1.285
- Th-T fluorescence of Aβ42 (sheet Fig. 7a), mean of three wells (head suffix _10 (concentration 10), reading M83): 1.378
- Th-T fluorescence of Aβ42 (sheet Fig. 7a), mean of three wells (head suffix _10 (concentration 10), reading M84): 1.428
- Th-T fluorescence of Aβ42 (sheet Fig. 7a), mean of three wells (head suffix _20 (concentration 20), reading M63): 0.2431
- Th-T fluorescence of Aβ42 (sheet Fig. 7a), mean of three wells (head suffix _20 (concentration 20), reading M64): 0.2464
- Th-T fluorescence of Aβ42 (sheet Fig. 7a), mean of three wells (head suffix _20 (concentration 20), reading M65): 0.2511
- Th-T fluorescence of Aβ42 (sheet Fig. 7a), mean of three wells (head suffix _20 (concentration 20), reading M66): 0.2535
- Th-T fluorescence of Aβ42 (sheet Fig. 7a), mean of three wells (head suffix _20 (concentration 20), reading M67): 0.2562
- Th-T fluorescence of Aβ42 (sheet Fig. 7a), mean of three wells (head suffix _20 (concentration 20), reading M68): 0.2616
- Th-T fluorescence of Aβ42 (sheet Fig. 7a), mean of three wells (head suffix _20 (concentration 20), reading M69): 0.2677
- Th-T fluorescence of Aβ42 (sheet Fig. 7a), mean of three wells (head suffix _20 (concentration 20), reading M70): 0.2739
- Th-T fluorescence of Aβ42 (sheet Fig. 7a), mean of three wells (head suffix _20 (concentration 20), reading M71): 0.2831
- Th-T fluorescence of Aβ42 (sheet Fig. 7a), mean of three wells (head suffix _20 (concentration 20), reading M72): 0.2882
- Th-T fluorescence of Aβ42 (sheet Fig. 7a), mean of three wells (head suffix _20 (concentration 20), reading M73): 0.2974
- Th-T fluorescence of Aβ42 (sheet Fig. 7a), mean of three wells (head suffix _20 (concentration 20), reading M74): 0.3106
- Th-T fluorescence of Aβ42 (sheet Fig. 7a), mean of three wells (head suffix _20 (concentration 20), reading M75): 0.3227
- Th-T fluorescence of Aβ42 (sheet Fig. 7a), mean of three wells (head suffix _20 (concentration 20), reading M76): 0.3296
- Th-T fluorescence of Aβ42 (sheet Fig. 7a), mean of three wells (head suffix _20 (concentration 20), reading M77): 0.3505
- Th-T fluorescence of Aβ42 (sheet Fig. 7a), mean of three wells (head suffix _20 (concentration 20), reading M78): 0.3679
- Th-T fluorescence of Aβ42 (sheet Fig. 7a), mean of three wells (head suffix _20 (concentration 20), reading M79): 0.3859
- Th-T fluorescence of Aβ42 (sheet Fig. 7a), mean of three wells (head suffix _20 (concentration 20), reading M80): 0.4085
- Th-T fluorescence of Aβ42 (sheet Fig. 7a), mean of three wells (head suffix _20 (concentration 20), reading M81): 0.4348
- Th-T fluorescence of Aβ42 (sheet Fig. 7a), mean of three wells (head suffix _20 (concentration 20), reading M82): 0.4734
- Th-T fluorescence of Aβ42 (sheet Fig. 7a), mean of three wells (head suffix _20 (concentration 20), reading M83): 0.5074
- Th-T fluorescence of Aβ42 (sheet Fig. 7a), mean of three wells (head suffix _20 (concentration 20), reading M84): 0.5384
- Th-T fluorescence of Aβ42 (sheet Fig. 7a), mean of three wells (head suffix _50 (concentration 50), reading M63): 0.2314
- Th-T fluorescence of Aβ42 (sheet Fig. 7a), mean of three wells (head suffix _50 (concentration 50), reading M64): 0.2365
- Th-T fluorescence of Aβ42 (sheet Fig. 7a), mean of three wells (head suffix _50 (concentration 50), reading M65): 0.2406
- Th-T fluorescence of Aβ42 (sheet Fig. 7a), mean of three wells (head suffix _50 (concentration 50), reading M66): 0.2402
- Th-T fluorescence of Aβ42 (sheet Fig. 7a), mean of three wells (head suffix _50 (concentration 50), reading M67): 0.2439
- Th-T fluorescence of Aβ42 (sheet Fig. 7a), mean of three wells (head suffix _50 (concentration 50), reading M68): 0.2485
- Th-T fluorescence of Aβ42 (sheet Fig. 7a), mean of three wells (head suffix _50 (concentration 50), reading M69): 0.2533
- Th-T fluorescence of Aβ42 (sheet Fig. 7a), mean of three wells (head suffix _50 (concentration 50), reading M70): 0.2583
- Th-T fluorescence of Aβ42 (sheet Fig. 7a), mean of three wells (head suffix _50 (concentration 50), reading M71): 0.2613
- Th-T fluorescence of Aβ42 (sheet Fig. 7a), mean of three wells (head suffix _50 (concentration 50), reading M72): 0.2693
